For 32 compounds, EC50 and Emax results are on record in patent US12637414B2, “Arylamides and methods of use thereof” (Genzyme Corporation, priority 2019, dated 2026).

In the assay the target is T1, human Cystic Fibrosis Transmembrane Conductance Regulator (CFTR) harboring the ΔF508 mutation (Homo sapiens, UniProt P13569, DEL508-508).
T1 construct: expressed in transfected cells; host or cells: H441 carcinoma line (G418 selection)
The assay is described as follows: H441 cell Emax and EC50: HRP-tagged ΔF508-CFTR cell surface luminescence assay. Particulars: H441 cells expressing ΔF508-CFTR-HRP, 27° C., two nights; for EC50: 15-point dose-response, top 24.5 μM; for Emax: NCI-H441, % of maximum VX809 signal. Type of assay: cell-based. The source says: Two cell lines were used, the H441 carcinoma line and the CFHBE41o-(41o-) human bronchial epithelial line. Both cell lines expressed human Cystic Fibrosis Transmembrane Conductance Regulator (CFTR) harboring the ΔF508 mutation and with an in-frame fusion in CFTR extracellular loop 4 of Horse Radish Peroxidase (HRP) under control of the CMV promoter. In the presence of the HRP tag, ΔF508-CFTR transported to the cell surface was detectable upon addition of an HRP substrate (Luminata Forte). Both cell types were cultivated at 37° C. with CO2.
For both cell types, the medium was changed every other day unless the culture was at low % confluence. Cells were used for the assays at ˜75% confluence.
To a polypropylene (PP) 384-well plate, 15 μls DMSO was added to all wells in columns 1-22 and 24 (low Control). 15 μls of 260 μM VX809 (Lumacaftor), Selleckchem S1565, was added to column 23 wells (high Control). 15 μls of 10 mM test compound or VX809 (control) were added to wells of row A. Serial dilutions of Row A compound were performed 2×15 μls in rows A through O (15-point).
A PP, 384-well plate containing the appropriate cell culture medium was prepared for each assay plate with 100 μls per well. For the doxycycline-induced 41o-cells, doxycycline for both the assay plate and the medium dilution plate was added at 0.0005 mg/ml to the medium.
Both cell lines were plated for the assay at 30 uls per 384-well at 3.4×10^e5 cells per ml (˜10K cells/well). H441 cells were plated on opaque, white, Corning plate 3704. 41o-cells were plated on collagen-coated opaque, white, Corning plate 356665. For 41o-cells, doxycycline was added to the medium.
Using FX (Beckman) protocol, 10 uls diluted compound or medium was added per well to the Assay Plate as: 2 μls DMSO Dilution plate well is diluted in 100 uls of the Medium Dilution Plate well, mixed, and 10 uls is transferred to the Assay Plate.
The final assay dilution series is 24.5, 12.3, 6.1, 3.1, 1.5, 0.8, 0.4, 0.2, 0.1, 0.05, 0.02, 0.01, 0.006, 0.003, 0.001 and 0 μM. The 41o-assay plates were incubated at 37° C. w/CO2, the H441 assay plates were incubated at 27° C. w/CO2, each overnight for two nights.
After being brought to room temperature, the assay plate liquid was removed. 30 μls of Luminata Forte (Millipore ELLUF0100) was added per well and incubated at room temperature for 10 min. The plates were then read on a Topcount, protocol LumiMatti (CPS, luminescence). The data was analyzed for % of maximum, maximum VX809 signal, and EC50 using Pearl and SPEED tools.

Bounds are passed on as bounds.

T1 sequence (P13569 with tags, fused parts or gaps DEL508-508): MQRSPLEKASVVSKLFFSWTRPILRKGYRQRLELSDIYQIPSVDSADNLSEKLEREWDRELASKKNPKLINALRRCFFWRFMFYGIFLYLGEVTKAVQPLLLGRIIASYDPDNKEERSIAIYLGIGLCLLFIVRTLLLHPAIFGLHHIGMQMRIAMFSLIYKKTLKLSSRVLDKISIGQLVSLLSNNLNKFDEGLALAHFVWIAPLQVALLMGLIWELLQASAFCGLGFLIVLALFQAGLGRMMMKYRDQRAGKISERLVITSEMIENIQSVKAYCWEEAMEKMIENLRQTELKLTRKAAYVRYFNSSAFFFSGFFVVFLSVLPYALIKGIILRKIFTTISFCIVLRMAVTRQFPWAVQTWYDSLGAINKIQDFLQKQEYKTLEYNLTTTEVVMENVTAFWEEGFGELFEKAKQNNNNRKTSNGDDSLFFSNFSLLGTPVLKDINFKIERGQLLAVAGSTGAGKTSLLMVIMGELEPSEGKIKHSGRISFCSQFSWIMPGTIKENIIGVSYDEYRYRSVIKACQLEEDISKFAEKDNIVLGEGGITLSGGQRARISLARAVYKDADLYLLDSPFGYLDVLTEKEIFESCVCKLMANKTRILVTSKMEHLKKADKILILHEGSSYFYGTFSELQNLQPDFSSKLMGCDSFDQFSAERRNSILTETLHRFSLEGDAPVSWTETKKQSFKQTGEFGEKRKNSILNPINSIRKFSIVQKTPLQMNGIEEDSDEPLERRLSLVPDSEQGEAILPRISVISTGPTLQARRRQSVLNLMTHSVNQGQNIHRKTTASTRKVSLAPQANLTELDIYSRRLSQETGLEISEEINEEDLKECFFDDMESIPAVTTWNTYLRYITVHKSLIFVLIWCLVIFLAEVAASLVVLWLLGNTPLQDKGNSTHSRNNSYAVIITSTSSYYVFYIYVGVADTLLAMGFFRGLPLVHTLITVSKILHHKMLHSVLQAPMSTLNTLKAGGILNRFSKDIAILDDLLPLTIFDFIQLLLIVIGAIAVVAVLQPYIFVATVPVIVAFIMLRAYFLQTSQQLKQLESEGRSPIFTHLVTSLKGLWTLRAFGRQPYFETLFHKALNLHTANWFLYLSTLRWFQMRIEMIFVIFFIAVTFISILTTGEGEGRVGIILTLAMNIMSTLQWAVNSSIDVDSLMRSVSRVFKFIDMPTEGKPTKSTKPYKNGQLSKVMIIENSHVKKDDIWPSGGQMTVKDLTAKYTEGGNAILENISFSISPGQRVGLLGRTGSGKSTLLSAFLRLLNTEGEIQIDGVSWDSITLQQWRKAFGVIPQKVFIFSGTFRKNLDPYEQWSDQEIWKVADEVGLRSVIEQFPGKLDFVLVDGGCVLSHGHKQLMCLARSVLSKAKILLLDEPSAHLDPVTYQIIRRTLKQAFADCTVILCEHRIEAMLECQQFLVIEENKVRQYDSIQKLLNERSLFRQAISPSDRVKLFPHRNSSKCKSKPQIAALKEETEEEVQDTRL

As a reminder, the EC50 is the concentration needed to bring the measured effect to its halfway point. Read a high EC50 as lower potency in that assay. One may read the Emax as the greatest response seen or fitted, relative to the assay's reference. With `CC(C)OC(=O)[C@@H](NC(=O)c1ccc2cccnc2c1OCc1ccc(C(F)(F)F)cc1)C12CC3CC(CC(C3)C1)C2` [compound 69], the concentration for a half-maximal effect (EC50) was ≥ 24500 nM and the Emax was 28.9%.

`O=C(N[C@H](C(=O)O)C12CC3CC(CC(C3)C1)C2)c1ccc2ccccc2c1OC[C@H]1CC[C@@H](C(F)(F)F)CC1` [compound 70]: a half-maximal response (EC50) required 1860 nM and the Emax turned out to be 97.4%.

With `CC(C)C#CCOc1c(C(=O)N[C@H](C(=O)O)C23CC4CC(CC(C4)C2)C3)ccc2cc(F)ccc12` [compound 72], a half-maximal effect (EC50) was put at 11200 nM and the Emax was determined as 92.7%.

As to `O=C(N[C@H](C(=O)O)C12CC3CC(CC(C3)C1)C2)c1ccc2ccccc2c1OCc1ccc([N+](=O)[O-])cc1` [compound 73], a half-maximal response (EC50) required 1320 nM and the Emax was 118%.

In the case of `CC(C)OC(=O)[C@@H](NC(=O)c1ccc2ccccc2c1OCc1ccc(C(F)(F)F)cc1)C12CC3CC(CC(C3)C1)C2` [compound 74], the Emax was determined as 4%.

For `CC12CC3(C)CC(C)(C1)CC(C(NC(=O)c1ccc4ccccc4c1OCC1CCCCC1)C(=O)O)(C2)C3` (stereo not shown) [compound 75], the 50% effective concentration (EC50) amounted to 599 nM and the Emax stood at 271%.

`CC12CC3(C)CC(C)(C1)CC(C(NC(=O)c1ccc4ccccc4c1OCc1ccc(C(F)(F)C(F)(F)F)cc1)C(=O)O)(C2)C3` (stereo not shown) [compound 76]: the half-maximal effective concentration (EC50) is 212 nM and the Emax is 196%.

On to `O=C(N[C@H](C(=O)O)C12CC3CC(CC(C3)C1)C2)c1ccc2ccccc2c1OCc1ccc(OC(F)F)cc1` [compound 78], for which the half-maximal effective concentration (EC50) was ≥ 24500 nM and the Emax was determined as 7.8%.

On to `O=C(NC(C(=O)O)C12CC3CC(CC(O)(C3)C1)C2)c1ccc2ccccc2c1OCc1ccc(C(F)(F)F)cc1` (stereo not shown) [compound 79], for which the EC50 was determined as 1030 nM and the Emax turned out to be 137%.

For the compound `O=C(N[C@H](C(=O)O)[C@]12C[C@H]3C[C@](O)(C[C@](Cl)(C3)C1)C2)c1ccc2ccccc2c1OCc1ccc(OC(F)(F)F)cc1` [compound 80, (S)-2-((1S,3S,5R,7S)-3-chloro-5-hydroxyadamantan-1-yl)-2-(1-((4-(trifluoromethoxy)benzyl)oxy)-2-naphthamido)acetic acid], the EC50 was determined as 78 nM and the Emax was 184%.

As to `O=C(N[C@H](C(=O)O)C12CC3CC(Cl)(CC(Cl)(C3)C1)C2)c1ccc2ccccc2c1OCc1ccc(SC(F)(F)F)cc1` [compound 81], the half-maximal effective concentration (EC50) was 113 nM and the Emax was determined as 158%.

On to `CC12CC3(C)CC(C)(C1)CC(C(NC(=O)c1ccc4ccccc4c1OCc1ccc(OC(F)(F)F)cc1)C(=O)O)(C2)C3` (stereo not shown) [compound 82], for which it took 201 nM to reach a half-maximal effect (EC50) and the Emax came to 304%.

For the compound `COc1ccc2c(OCc3ccc(SC(F)(F)F)cc3)c(C(=O)N[C@H](C(=O)O)C34CC5CC(CC(C5)C3)C4)ccc2c1` [compound 83], a half-maximal response (EC50) required 947 nM and the Emax was determined as 16.4%.

Regarding `O=C(N[C@H](C(=O)O)C12CC3CC(CC(C3)C1)C2)c1ccc2cccnc2c1OCc1ccc(OC(F)(F)F)cc1` [compound 84], the EC50 amounted to 660 nM and the Emax worked out at 149%.

As to `COC12CC3CC(C1)CC([C@H](NC(=O)c1ccc4ccccc4c1OCc1ccc(C(F)(F)F)cc1)C(=O)O)(C3)C2` [compound 85], the concentration giving a half-maximal response (EC50) was 375 nM and the Emax was 131%.

Take `COc1c(F)c(COc2c(C(=O)N[C@H](C(=O)O)C34CC5CC(CC(C5)C3)C4)ccc3ccccc23)c(F)c(F)c1C(F)(F)F` [compound 86]: the midpoint of the response, the EC50, lay at 526 nM and the Emax amounted to 24%.

On to `CCOC(=O)[C@H](C)OC12CC3CC(C1)CC([C@H](NC(=O)c1ccc4cc(F)ccc4c1OCc1ccc(C(F)(F)F)cc1)C(=O)O)(C3)C2` [compound 87], for which a half-maximal response (EC50) required 287 nM and the Emax came out at 96.2%.

With `O=C(N[C@H](C(=O)O)C12CC3CC(CC(C3)C1)C2)c1ccc2cc(F)ccc2c1OCc1ccc(OC(F)(F)F)cc1` [compound 88], the Emax was -9.7%.

For `O=C(N[C@H](C(=O)O)C12CC3CC(CC(C3)C1)C2)c1ccc2ccccc2c1OCc1ccc(Cl)c(Cl)c1` [compound 89], it took 350 nM to reach a half-maximal effect (EC50) and the Emax was determined as 204%.

For the compound `CC12CC3(C)CC(C)(C1)CC(C(NC(=O)c1ccc4ccccc4c1OCC1CCC(F)(F)CC1)C(=O)O)(C2)C3` (stereo not shown) [compound 90], the concentration giving a half-maximal response (EC50) is 1010 nM and the Emax is 165%.

Take `O=C(NC(C(=O)O)C12CC3CC(CC(OCC(Cl)Cl)(C3)C1)C2)c1ccc2cc(F)ccc2c1OCc1ccc(C(F)(F)F)cc1` (stereo not shown) [compound 91]: the half-maximal effective concentration (EC50) was 441 nM and the Emax was found to be 110%.

As to `NC12CC3CC(C1)CC([C@H](NC(=O)c1ccc4ccccc4c1OCc1ccc(C(F)(F)F)cc1)C(=O)O)(C3)C2` [compound 92], the Emax is -1.3%.

On to `O=C(N[C@H](C(=O)O)C12CC3CC(CC(C3)C1)C2)c1sc2ccccc2c1OCc1ccc(OC(F)(F)F)cc1` [compound 93], for which the response was half-maximal at 908 nM (EC50) and the Emax is 108%.

Take `O=C(N[C@H](C(=O)O)C12CC3CC(CC(C3)C1)C2)c1sc2ccccc2c1OCC1CCCCC1` [compound 94]: the response was half-maximal at 915 nM (EC50) and the Emax was 257%.

For `O=C(N[C@H](C(=O)O)C12CC3CC(CC(C3)C1)C2)c1sc2ccccc2c1OCc1nc2ccccc2s1` [compound 95], the EC50 came to 939 nM and the Emax came to 156%.

With `O=C(N[C@H](C(=O)O)C12CC3CC(CC(C3)C1)C2)c1ccc2ccccc2c1OCc1ccc(C(F)(F)F)cc1` [compound 96, (2S)-2-(1-adamantyl)-2-[[1-[[4-(trifluoromethyl)phenyl]methoxy]naphthalene-2-carbonyl]amino]acetic acid], the EC50 turned out to be 398 nM and the Emax was 180%.

For `O=C(N[C@H](C(=O)O)C12CC3CC(CC(C3)C1)C2)c1ccc2ccccc2c1OCc1nc(C(F)(F)F)cs1` [compound 100, (2S)-2-(1-adamantyl)-2-[[1-[[4-(trifluoromethyl)thiazol-2-yl]methoxy]naphthalene-2-carbonyl]amino]acetic acid], the EC50 worked out at 2880 nM and the Emax was found to be 55.8%.

Take `O=C(N[C@H](C(=O)O)C12CC3CC(CC(C3)C1)C2)c1ccc2ccccc2c1OCC#CC1CC1` [compound 101, (2S)-2-(1-adamantyl)-2-[[1-(3-cyclopropylprop-2-ynoxy)naphthalene-2-carbonyl]amino]acetic acid]: a half-maximal effect (EC50) was put at 2700 nM and the Emax was 145%.

On to `O=C(N[C@H](C(=O)O)C12CC3CC(CC(C3)C1)C2)c1ccc2ccccc2c1OCC1(C(F)(F)F)CC1` [compound 102, (2S)-2-(1-adamantyl)-2-[[1-[[1-(trifluoromethyl)cyclopropyl]methoxy]naphthalene-2-carbonyl]amino]acetic acid], for which a half-maximal effect (EC50) was put at 18000 nM and the Emax worked out at 53.1%.

Regarding `CC(C)Oc1ccc2c(OCc3ccc(C(F)(F)F)cc3)c(C(=O)N[C@H](C(=O)O)C34CC5CC(CC(C5)C3)C4)ccc2c1` [compound 103, (2S)-2-(1-adamantyl)-2-[[6-isopropoxy-1-[[4-(trifluoromethyl)phenyl]methoxy]naphthalene-2-carbonyl]amino]acetic acid], the 50% effective concentration (EC50) stood at 397 nM and the Emax came to 30.2%.

As for `O=C(N[C@H](C(=O)O)C12CC3CC(CC(C3)C1)C2)c1ccc2sccc2c1OCC1CCCCC1` [compound 104, (2S)-2-(1-adamantyl)-2-[[4-(cyclohexylmethoxy)benzothiophene-5-carbonyl]amino]acetic acid], the 50% effective concentration (EC50) amounted to 1230 nM and the Emax is 228%.

Consider `O=C(N[C@H](C(=O)O)C12CC3CC(CC(O)(C3)C1)C2)c1ccc2sccc2c1OCc1ccc(C(F)(F)F)cc1` [compound 105, (2S)-2-(3-hydroxy-1-adamantyl)-2-[[4-[[4-(trifluoromethyl)phenyl]methoxy]benzothiophene-5-carbonyl]amino]acetic acid], for which the EC50 was determined as 3550 nM and the Emax amounted to 150%.
